Results from patent publication US20230406885A1, “CYCLIC PEPTIDES FOR TRAPPING INTERLEUKIN-1 BETA” (MERCK SHARP & DOHME LLC, priority 2022, published 2023).
*1 amine or outer side, *2 acyl side, *3 side chain or, on linkers, in order; H or OH if unused. Where a SMILES comes first, the peptide text is derived from it. [ ]: non-standard residue; d: D form. Bip(4'-COOH) = N[C@@H](Cc1ccc(-c2ccc(C(=O)O)cc2)cc1)C(=O)O; 1Nal(3S-Me) = C[C@@H](c1cccc2ccccc12)[C@H](N)C(=O)O; hPhe(4-CF3) = N[C@@H](CCc1ccc(C(F)(F)F)cc1)C(=O)O; X8 = O=C([C@H](CCc1cccc(C(F)(F)F)c1)N[*:1])[*:2]; X13 = O=C([C@H](CCc1ccccc1C(F)(F)F)N[*:1])[*:2]; Ala(pyrimidin-5-yl) = N[C@@H](Cc1cncnc1)C(=O)O; Phe(4-COOH) = N[C@@H](Cc1ccc(C(=O)O)cc1)C(=O)O; Trp(7-aza) = N[C@@H](Cc1c[nH]c2ncccc12)C(=O)O; h3Pal(5-CN) = N#Cc1cncc(CC[C@H](N)C(=O)O)c1; Pro(4R-NH2) = N[C@H]1CN[C@H](C(=O)O)C1; Ala(4-THP) = N[C@@H](CC1CCOCC1)C(=O)O; AEF = NCCOc1ccc(C[C@H](N)C(=O)O)cc1; hTyr = N[C@@H](CCc1ccc(O)cc1)C(=O)O; 4Pal = N[C@@H](Cc1ccncc1)C(=O)O; dDab = NCC[C@@H](N)C(=O)O; dNMeA = CN[C@H](C)C(=O)O; Dab = NCC[C@H](N)C(=O)O; Aib = CC(C)(N)C(=O)O

Each compound was assayed against T1, Recombinant human IL-1β (Homo sapiens, UniProt P01584) (assay: IL-6 assay in MRC5 cells: inhibition of IL-1β induced IL-6 secretion (AlphaLISA)). Conditions: inhibition of IL-1β induced IL-6 secretion in MRC5 cells; IL-1β pre-incubated 1 hour with compound; read-out: MRC5 IC50.
T1 construct: purchased BioLegend 579404
T1 sequence (P01584 117-269): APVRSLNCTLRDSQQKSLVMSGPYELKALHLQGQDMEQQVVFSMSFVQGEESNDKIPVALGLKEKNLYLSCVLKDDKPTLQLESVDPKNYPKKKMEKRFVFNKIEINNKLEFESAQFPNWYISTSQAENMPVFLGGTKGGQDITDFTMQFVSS
Format: cell-based
Outline: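 IL-1β at 2×EC80 in seeding medium (EMEM, 0.025% BSA) preincubated 1 h at ambient temperature with compound, then 3000 MRC5 cells/well added and incubated overnight at 37 °C, 5% CO2. IL-6 in conditioned medium quantified by AlphaLISA; IC50 from 4-parameter logistic fit.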
Work on `CC(=O)NCCOc1ccc(C[C@@H]2NC(=O)[C@H](CCc3ccc(O)cc3)NC(=O)[C@@H](C)NC(=O)[C@H](CCN)NC(=O)[C@H](Cc3ccncc3)NC(=O)[C@H](Cc3ccc(-c4ccc(C(=O)O)cc4)cc3)NC(=O)CNC(=O)[C@@H](C)N(C)C(=O)[C@H](CC(=O)O)NC(=O)[C@H]([C@@H](C)c3cccc4ccccc34)NC(=O)[C@@H]3C[C@@H](N)CN3C(=O)CNC(=O)[C@H](Cc3ccc(C(=O)O)cc3)NC(=O)[C@H](Cc3c[nH]c4ccccc34)NC2=O)cc1` [Example 101] (cyclo([AEF](Ac)W[Phe(4-COOH)]G[Pro(4R-NH2)][1Nal(3S-Me)]D[dNMeA]G[Bip(4'-COOH)][4Pal][Dab][dA][hTyr])) yielded an IC50 of 0.247 nM.
Compound `CC(=O)NCCOc1ccc(C[C@@H]2NC(=O)[C@H](CCc3cncc(C#N)c3)NC(=O)[C@@H](CCN)NC(=O)CNC(=O)[C@H](Cc3ccncc3)NC(=O)[C@H](Cc3ccc(-c4ccc(C(=O)O)cc4)cc3)NC(=O)CNC(=O)[C@@H](C)N(C)C(=O)[C@H](CC(=O)O)NC(=O)[C@H]([C@@H](C)c3cccc4ccccc34)NC(=O)[C@@H]3C[C@@H](N)CN3C(=O)CNC(=O)[C@H](Cc3ccc(C(=O)O)cc3)NC(=O)[C@H](Cc3c[nH]c4ccccc34)NC2=O)cc1` [Example 102] (cyclo([AEF](Ac)W[Phe(4-COOH)]G[Pro(4R-NH2)][1Nal(3S-Me)]D[dNMeA]G[Bip(4'-COOH)][4Pal]G[dDab][h3Pal(5-CN)])) has an IC50 of 0.0421 nM.
`CC(=O)NCCOc1ccc(C[C@@H]2NC(=O)[C@H](CCc3ccccc3C(F)(F)F)NC(=O)[C@@H](C)NC(=O)[C@H](CO)NC(=O)[C@H](Cc3ccncc3)NC(=O)[C@H](Cc3ccc(-c4ccc(C(=O)O)cc4)cc3)NC(=O)CNC(=O)[C@@H](C)N(C)C(=O)[C@H](CC(=O)O)NC(=O)[C@H]([C@@H](C)c3cccc4ccccc34)NC(=O)[C@@H]3C[C@@H](N)CN3C(=O)CNC(=O)[C@H](Cc3ccc(C(=O)O)cc3)NC(=O)[C@H](Cc3c[nH]c4ccccc34)NC2=O)cc1` [Example 103] (cyclo([AEF](Ac)W[Phe(4-COOH)]G[Pro(4R-NH2)][1Nal(3S-Me)]D[dNMeA]G[Bip(4'-COOH)][4Pal]S[dA][X13])) was tested, and the IC50 was 0.066 nM.
For `CC(=O)NCCOc1ccc(C[C@@H]2NC(=O)[C@H](CCc3cccc(C(F)(F)F)c3)NC(=O)[C@@H](C)NC(=O)[C@H](CO)NC(=O)[C@H](Cc3ccncc3)NC(=O)[C@H](Cc3ccc(-c4ccc(C(=O)O)cc4)cc3)NC(=O)CNC(=O)[C@@H](C)N(C)C(=O)[C@H](CC(=O)O)NC(=O)[C@H]([C@@H](C)c3cccc4ccccc34)NC(=O)[C@@H]3C[C@@H](N)CN3C(=O)CNC(=O)[C@H](Cc3ccc(C(=O)O)cc3)NC(=O)[C@H](Cc3c[nH]c4ccccc34)NC2=O)cc1` [Example 104] (cyclo([AEF](Ac)W[Phe(4-COOH)]G[Pro(4R-NH2)][1Nal(3S-Me)]D[dNMeA]G[Bip(4'-COOH)][4Pal]S[dA][X8])), the IC50 was 0.041 nM.
Compound `CC(=O)NCCOc1ccc(C[C@@H]2NC(=O)[C@H](CCc3ccc(C(F)(F)F)cc3)NC(=O)[C@@H](C)NC(=O)[C@H](CO)NC(=O)[C@H](Cc3ccncc3)NC(=O)[C@H](Cc3ccc(-c4ccc(C(=O)O)cc4)cc3)NC(=O)CNC(=O)[C@@H](C)N(C)C(=O)[C@H](CC(=O)O)NC(=O)[C@H]([C@@H](C)c3cccc4ccccc34)NC(=O)[C@@H]3C[C@@H](N)CN3C(=O)CNC(=O)[C@H](Cc3ccc(C(=O)O)cc3)NC(=O)[C@H](Cc3c[nH]c4ccccc34)NC2=O)cc1` [Example 105] (cyclo([AEF](Ac)W[Phe(4-COOH)]G[Pro(4R-NH2)][1Nal(3S-Me)]D[dNMeA]G[Bip(4'-COOH)][4Pal]S[dA][hPhe(4-CF3)])) has an IC50 of 0.091 nM.
With `CC(=O)NCCOc1ccc(C[C@@H]2NC(=O)[C@H](CCc3cncc(C#N)c3)NC(=O)[C@@H](CCN)NC(=O)CNC(=O)[C@H](CC3CCOCC3)NC(=O)[C@H](Cc3ccc(-c4ccc(C(=O)O)cc4)cc3)NC(=O)CNC(=O)[C@@H](C)N(C)C(=O)[C@H](CC(=O)O)NC(=O)[C@H]([C@@H](C)c3cccc4ccccc34)NC(=O)[C@@H]3C[C@@H](N)CN3C(=O)CNC(=O)[C@H](Cc3ccc(C(=O)O)cc3)NC(=O)[C@H](Cc3c[nH]c4ccccc34)NC2=O)cc1` [Example 106] (cyclo([AEF](Ac)W[Phe(4-COOH)]G[Pro(4R-NH2)][1Nal(3S-Me)]D[dNMeA]G[Bip(4'-COOH)][Ala(4-THP)]G[dDab][h3Pal(5-CN)])) the IC50 was 0.0263 nM.
In the case of `CC(=O)NCCOc1ccc(C[C@@H]2NC(=O)[C@H](CCc3ccc(O)cc3)NC(=O)C(C)(C)NC(=O)CNC(=O)[C@H](CCCCN)NC(=O)[C@H](Cc3ccc(-c4ccc(C(=O)O)cc4)cc3)NC(=O)CNC(=O)[C@@H](C)N(C)C(=O)[C@H](CC(=O)O)NC(=O)[C@H]([C@@H](C)c3cccc4ccccc34)NC(=O)[C@@H]3C[C@@H](N)CN3C(=O)CNC(=O)[C@H](Cc3ccc(C(=O)O)cc3)NC(=O)[C@H](Cc3c[nH]c4ccccc34)NC2=O)cc1` [Example 107] (cyclo([AEF](Ac)W[Phe(4-COOH)]G[Pro(4R-NH2)][1Nal(3S-Me)]D[dNMeA]G[Bip(4'-COOH)]KG[Aib][hTyr])), the IC50 is reported as 0.0582 nM.
In the case of `CC(=O)NCCOc1ccc(C[C@@H]2NC(=O)[C@H](CCc3ccc(O)cc3)NC(=O)[C@@H](C)NC(=O)CNC(=O)[C@H](CCCCN)NC(=O)[C@H](Cc3ccc(-c4ccc(C(=O)O)cc4)cc3)NC(=O)CNC(=O)[C@@H](C)N(C)C(=O)[C@H](CC(=O)O)NC(=O)[C@H]([C@@H](C)c3cccc4ccccc34)NC(=O)[C@@H]3C[C@@H](N)CN3C(=O)CNC(=O)[C@H](Cc3ccc(C(=O)O)cc3)NC(=O)[C@H](Cc3c[nH]c4ccccc34)NC2=O)cc1` [Example 108] (cyclo([AEF](Ac)W[Phe(4-COOH)]G[Pro(4R-NH2)][1Nal(3S-Me)]D[dNMeA]G[Bip(4'-COOH)]KG[dA][hTyr])), the IC50 is reported as 0.102 nM.
For `CC(=O)NCCOc1ccc(C[C@@H]2NC(=O)[C@H](CCc3ccc(O)cc3)NC(=O)[C@@H](C)N(C)C(=O)CNC(=O)[C@H](CCCCN)NC(=O)[C@H](Cc3ccc(-c4ccc(C(=O)O)cc4)cc3)NC(=O)CNC(=O)[C@@H](C)N(C)C(=O)[C@H](CC(=O)O)NC(=O)[C@H]([C@@H](C)c3cccc4ccccc34)NC(=O)[C@@H]3C[C@@H](N)CN3C(=O)CNC(=O)[C@H](Cc3ccc(C(=O)O)cc3)NC(=O)[C@H](Cc3c[nH]c4ccccc34)NC2=O)cc1` [Example 109] (cyclo([AEF](Ac)W[Phe(4-COOH)]G[Pro(4R-NH2)][1Nal(3S-Me)]D[dNMeA]G[Bip(4'-COOH)]KG[dNMeA][hTyr])), the IC50 was 0.0775 nM.
Work on `CC(=O)NCCOc1ccc(C[C@@H]2NC(=O)[C@H](CCc3ccc(O)cc3)NC(=O)[C@@H](C)NC(=O)[C@H](CC(C)C)NC(=O)[C@H](CCCCN)NC(=O)[C@H](Cc3ccc(-c4ccc(C(=O)O)cc4)cc3)NC(=O)CNC(=O)[C@@H](C)N(C)C(=O)[C@H](CC(=O)O)NC(=O)[C@H]([C@@H](C)c3cccc4ccccc34)NC(=O)[C@@H]3C[C@@H](N)CN3C(=O)CNC(=O)[C@H](Cc3ccc(C(=O)O)cc3)NC(=O)[C@H](Cc3c[nH]c4ccccc34)NC2=O)cc1` [Example 110] (cyclo([AEF](Ac)W[Phe(4-COOH)]G[Pro(4R-NH2)][1Nal(3S-Me)]D[dNMeA]G[Bip(4'-COOH)]KL[dA][hTyr])) yielded an IC50 of 0.195 nM.
Compound `CC(=O)NCCOc1ccc(C[C@@H]2NC(=O)[C@H](CCc3ccc(C(F)(F)F)cc3)NC(=O)[C@@H](C)NC(=O)[C@H](CO)NC(=O)[C@H](CCCCN)NC(=O)[C@H](Cc3ccc(-c4ccc(C(=O)O)cc4)cc3)NC(=O)CNC(=O)[C@@H](C)N(C)C(=O)[C@H](CC(=O)O)NC(=O)[C@H]([C@@H](C)c3cccc4ccccc34)NC(=O)[C@@H]3C[C@@H](N)CN3C(=O)CNC(=O)[C@H](Cc3ccc(C(=O)O)cc3)NC(=O)[C@H](Cc3c[nH]c4ccccc34)NC2=O)cc1` [Example 111] (cyclo([AEF](Ac)W[Phe(4-COOH)]G[Pro(4R-NH2)][1Nal(3S-Me)]D[dNMeA]G[Bip(4'-COOH)]KS[dA][hPhe(4-CF3)])) has an IC50 of 0.133 nM.
Work on `CC(=O)NCCOc1ccc(C[C@@H]2NC(=O)[C@H](CCc3ccc(O)cc3)NC(=O)[C@@H](C)NC(=O)[C@H](CO)NC(=O)[C@H](CCCCN)NC(=O)[C@H](Cc3ccc(-c4ccc(C(=O)O)cc4)cc3)NC(=O)CNC(=O)[C@@H](C)N(C)C(=O)[C@H](CC(=O)O)NC(=O)[C@H]([C@@H](C)c3cccc4ccccc34)NC(=O)[C@@H]3C[C@@H](N)CN3C(=O)CNC(=O)[C@H](Cc3ccc(C(=O)O)cc3)NC(=O)[C@H](Cc3c[nH]c4ccccc34)NC2=O)cc1` [Example 112] (cyclo([AEF](Ac)W[Phe(4-COOH)]G[Pro(4R-NH2)][1Nal(3S-Me)]D[dNMeA]G[Bip(4'-COOH)]KS[dA][hTyr])) yielded an IC50 of 0.0617 nM.
For `CC(=O)NCCOc1ccc(C[C@@H]2NC(=O)[C@H](CCc3cncc(C#N)c3)NC(=O)[C@@H](CCN)NC(=O)CNC(=O)[C@H](Cc3cncnc3)NC(=O)[C@H](Cc3ccc(-c4ccc(C(=O)O)cc4)cc3)NC(=O)CNC(=O)[C@@H](C)N(C)C(=O)[C@H](CC(=O)O)NC(=O)[C@H]([C@@H](C)c3cccc4ccccc34)NC(=O)[C@@H]3C[C@@H](N)CN3C(=O)CNC(=O)[C@H](Cc3ccc(C(=O)O)cc3)NC(=O)[C@H](Cc3c[nH]c4ccccc34)NC2=O)cc1` [Example 113] (cyclo([AEF](Ac)W[Phe(4-COOH)]G[Pro(4R-NH2)][1Nal(3S-Me)]D[dNMeA]G[Bip(4'-COOH)][Ala(pyrimidin-5-yl)]G[dDab][h3Pal(5-CN)])), the IC50 was 0.0918 nM.
`CC(=O)NCCOc1ccc(C[C@@H]2NC(=O)[C@H](CCc3cncc(C#N)c3)NC(=O)[C@@H](CCN)NC(=O)CNC(=O)[C@H](Cc3c[nH]c4ncccc34)NC(=O)[C@H](Cc3ccc(-c4ccc(C(=O)O)cc4)cc3)NC(=O)CNC(=O)[C@@H](C)N(C)C(=O)[C@H](CC(=O)O)NC(=O)[C@H]([C@@H](C)c3cccc4ccccc34)NC(=O)[C@@H]3C[C@@H](N)CN3C(=O)CNC(=O)[C@H](Cc3ccc(C(=O)O)cc3)NC(=O)[C@H](Cc3c[nH]c4ccccc34)NC2=O)cc1` [Example 114] (cyclo([AEF](Ac)W[Phe(4-COOH)]G[Pro(4R-NH2)][1Nal(3S-Me)]D[dNMeA]G[Bip(4'-COOH)][Trp(7-aza)]G[dDab][h3Pal(5-CN)])) was tested, and the IC50 was 0.0233 nM.
